# Measurements from US20240336896A1, “MODIFIED PRODUCER CELLS FOR EXTRACELLULAR VESICLE PRODUCTION” (LONZA SALES AG, priority 2021, published 2024).
# Read-outs that look alike come from different tables or passages of the source.
# Tests used:
# [1] = tested on: primary murine polymorphonuclear neutrophils, RAW264.7 monocytic cells, and 4T1 murine mammary cancer cells; settings: Baek et al., Endocrinology 2021; cited from earlier work
# [2] = tested on: HEK producer cell line producing Protein X EVs (PrX); assay: EV yield in total particles, PrX producer cells; type: cell-based
# Description: (§1) The cells lines were treated with simvastatin (5 nM and 10 nM) for 10 days prior to EV purification.
# CHO-S cells = assay: EV yield in total particles from CHO cells; type: cell-based, Chinese Hamster
# Description: Table 10 quantifies the results. A similar 5.6-fold increase relative to untreated controls was also observed in CHO-S cells six days after being treated with 6 nM simvastatin.
# [3] = tested on: 1919 HiBit reporter cell line; assay: HiBit luciferase reporter assay of EV production, agent supplemented into media; type: cell-based
# HiBit reporter cell line [4] = assay: viability and viable cell density (VCD) of treated producer cells
# [5] = tested on: HEK producer cell line producing IL-12 EVs (exoIL-12); assay: EV yield in total particles, exoIL-12 producer cells; type: cell-based
# Description: as §1
# human adipose MSC cells = assay: relative EV yield by AEX UHPLC peak areas of clarified conditioned media; type: cell-based; settings: 6 nM simvastatin, 4 days, serum free media
# Description: When cultures reached approximately 50% confluence, the media was removed and replaced with the identical growth media (control) or the growth media supplemented with […] simvastatin (sim treated). The cultures were incubated for an additional 4 days at which point the conditioned media was collected and the cell debris removed by centrifugation. The clarified condition media was then analyzed by anion exchange (AEX) ultra high-performance liquid chromatography (UHPLC), and the relative amount of extracellular vesicles in each sample was estimated by comparing peak areas. Table 11 quantifies the results, showing a 2.6 fold increase in EV production by adipose MSC cells treated with 6 nM simvastatin.
# HiBit reporter cell line [6] = settings: for Day 4 VCD / Day 4 Viability: 4 day; for D6 VCD / Day 6 Viability: 6 day
smiles,measurement,setting,value
C[C@@H](CO)CCC[C@@H](C)[C@H]1CC[C@H]2[C@@H]3CC=C4C[C@@H](O)CC[C@]4(C)[C@H]3CC[C@]12C [27-hydroxycholesterol],exosome production,[1],increased exosome production
"CCC(C)(C)C(=O)O[C@H]1C[C@@H](C)C=C2C=C[C@H](C)[C@H](CC[C@@H]3C[C@@H](O)CC(=O)O3)[C@H]21 [Simvastatin, simvastatin]",Relationship to Control,[2]; 5 nM simvastatin for 10 days,4x
same,Total Particles,[2]; 5 nM simvastatin for 10 days prior to EV purification,4.5E+11
same,increase in EV yield relative to untreated controls,CHO-S cells; CHO-S cells six days after being treated with 6 nM simvastatin,5.6 fold
same,Relationship to Control,"CHO-S cells; CHO-S, 10 nM simvastatin",5.6X
same,Total Particles,"CHO-S cells; CHO-S, 10 nM simvastatin",2.22E+11
same,Luciferase relative to control,"[3]; 10 nM simvastatin, Day 2",2.3
same,Luciferase relative to control,"[3]; 10 nM simvastatin, Day 3",4.7
same,Luciferase relative to control,"[3]; 10 nM simvastatin, Day 6",9.6
same,Luciferase relative to control,"[3]; 50 nM simvastatin, Day 2",5.3
same,IC50,"[3]; simvastatin supplemented into the media, inhibited quantity not stated",10 to 20 nM
same,D6 VCD,HiBit reporter cell line [4]; 2 nM simvastatin,17.00 e6/ml
same,Day 4 VCD,HiBit reporter cell line [4]; 2 nM simvastatin,10.41 e6/ml
same,Day 4 Viability,HiBit reporter cell line [4]; 2 nM simvastatin,94.9%
same,Day 6 Viability,HiBit reporter cell line [4]; 2 nM simvastatin,95.5%
same,D6 VCD,HiBit reporter cell line [4]; 5 nM simvastatin,15.5 e6/ml
same,Day 4 VCD,HiBit reporter cell line [4]; 5 nM simvastatin,9.16 e6/ml
same,Day 4 Viability,HiBit reporter cell line [4]; 5 nM simvastatin,92.7%
same,Day 6 Viability,HiBit reporter cell line [4]; 5 nM simvastatin,95.7%
same,tolerability of producer cells,"HiBit reporter cell line [4]; 10 nM dose, batch refeed in shake flask, duration of the study",well tolerated
same,D6 VCD,HiBit reporter cell line [4]; 10 nM simvastatin,12.41 e6/ml
same,Day 4 VCD,HiBit reporter cell line [4]; 10 nM simvastatin,8.66 e6/ml
same,Day 4 Viability,HiBit reporter cell line [4]; 10 nM simvastatin,88.8%
same,Day 6 Viability,HiBit reporter cell line [4]; 10 nM simvastatin,93.6%
same,viable cell density (VCD),"HiBit reporter cell line [4]; simvastatin alone in HiBit cultures, Example 7",characteristic decrease
same,Relationship to Control,"[5]; exoIL-12, 5 nM simvastatin for 10 days",3.5x^
same,Total Particles,"[5]; exoIL-12, 5 nM simvastatin for 10 days prior to EV purification",1.79E+11
same,Relationship to Control,"[5]; exoIL-12, 10 nM simvastatin for 10 days",7x
same,Total Particles,"[5]; exoIL-12, 10 nM simvastatin for 10 days prior to EV purification",3.50E+11
same,FOLD INCREASE PER CELL EV PRODUCTION,human adipose MSC cells,2.6 X
same,FOLD INCREASE PER CELL EV PRODUCTION,human adipose MSC cells; listed as Sim,2.6X
"CN(C)C(=O)N[C@H]1CC[C@H](CCN2CCN(c3cccc(Cl)c3Cl)CC2)CC1 [Cariprazine, cariprazine]",Day 4 VCD,HiBit reporter cell line [6],5.14 e6/ml
same,Day 4 VCD,HiBit reporter cell line [6]; 5 μM,7.73 e6/ml
same,Day 4 Viability,HiBit reporter cell line [6]; 5 μM,95.6%
same,Day 4 Viability,HiBit reporter cell line [6]; 10 μM,89.7%
same,D6 VCD,HiBit reporter cell line [6]; 5 μM,11.97 e6/ml
same,Day 6 Viability,HiBit reporter cell line [6]; 5 μM,92.4%
same,D6 VCD,HiBit reporter cell line [6]; 10 μM,5.13 e6/ml
same,Day 6 Viability,HiBit reporter cell line [6]; 10 μM,81.0%
same,Luciferase relative to control,"[3]; 2 μM cariprazine, Day 2",0.8
same,Luciferase relative to control,"[3]; 2 μM cariprazine, Day 3",1.8
same,Luciferase relative to control,"[3]; 5 μM cariprazine, Day 2",1
same,Luciferase relative to control,"[3]; 5 μM cariprazine, Day 3",2.6
same,Luciferase relative to control,"[3]; 10 μM cariprazine, Day 2",0.8
same,Luciferase relative to control,"[3]; 10 μM cariprazine, Day 3",2.4
CC(C)c1nc(N(C)S(C)(=O)=O)nc(-c2ccc(F)cc2)c1/C=C/[C@@H](O)C[C@@H](O)CC(=O)O [rosuvastatin],EV expression (luminescence/cell),"[3]; 10, 25, 50, 75, 100 nM, four days post induction",dose-dependent increase
"CC(C)CCC[C@@H](C)[C@H]1CC[C@H]2[C@@H]3CC=C4C[C@@H](O)CC[C@]4(C)[C@H]3CC[C@]12C [synthetic cholesterol, cholesterol]",impact on cell culture VCD,HiBit reporter cell line [6],no impact
same,impact on exosome production,[3]; elevated cholesterol alone,no impact
same,simvastatin induction of EV production,"[3]; supplemental cholesterol together with simvastatin, still higher than control cultures lacking statin",largely attenuated
Cc1nc[nH]c1CN1CCN(C(=O)N[C@@H](CC(C)C)C(=O)O)[C@@H](Cc2ccccc2)C1=O [GGTI-2418],effect on exosome production (RLU),"[3]; days 2, 4, 6, and 8",no effect
same,effect on cell density (VCD),"HiBit reporter cell line [4]; days 2, 4, 6, and 8",no effect
